In US9629816B2, “Small molecule therapeutic compounds targeting thioesterase deficiency disorders and methods of using the same” (The United States of America, as represented by the …, priority 2011, dated 2017):

Tests used:
PPT1-KO mice [1] = test: Rotarod Performance Test, motor coordination of PPT1-KO mice; type: in vivo, mouse; settings: 6-month and 8-month old PPT1-KO mice (FIG. 19A-D)
Method: Motor coordination of the untreated- and NtBuHA-treated PPT1-KO mice was assessed using Rotarod) (UGO Basile, Italy) at three different speeds (4, 8 and 12 rpm). In all these speeds the direction of rotation was reversed every 15 seconds. Animals were trained twice at all speed settings for 1 minute each for 3 days. Animals were then given a rest for 1 minute between two trials. Rotarod experiments were performed for at least 60 seconds on day 4 and the amount of time a mouse was on the rotarod before falling from the rotating rod was recorded.
Since NtBuHA functionally mimics PPT1, the inventors tested 6-month and 8-month old wild-type, untreated- and NtBuHA-treated PPT1-KO mice for motor coordination and exploratory behavior. The Rotarod Performance Test, which measures parameters such as riding time (seconds) and/or endurance was used to measure motor coordination. The open field test was utilized to evaluate the exploratory behavior.

PPT1-KO mice [2] = test: NeuN immunohistochemistry of cortical tissue sections of PPT1-KO mice; type: in vivo, mouse; settings: brain sections vs untreated PPT1-KO mice (FIG. 18)
Method: The NtBuHA treated and untreated mouse brain tissues were fixed in 3.7% paraformaldehyde, embedded in paraffin and processed for histological analyses. Briefly, after being treated with xylene and then successively with different concentrations of ethanol in phosphate buffered saline (PBS) (100% to 0%), tissue sections were blocked with 5% BSA in PBS. Sections were then probed overnight with anti-synaptophysin (Abcam) and anti-GFAP followed by incubation with alexa fluor 594 conjugated anti-rabbit and anti-mouse secondary antibodies (Invitrogen). Sections were mounted with DAPI containing mounting medium and imaged using Zeiss LSM 510 Inverted Meta confocal microscope (Carl Zeiss).
It has been reported that postmortem brain tissues from INCL patients as well as those from PPT1-KO mice manifest high levels of oxidative stress, which induces neuronal apoptosis contributing to neuropathology. […] Accordingly, a terminal deoxynucleotidyl transferase dUTP nick end labeling (TUNEL) assay was performed using cortical tissue sections from wild-type, untreated PPT1-KO and NtBuHA-treated PPT1-KO mice to determine the level of apoptosis. […] Quantitative analysis of the NeuN-positive cells in brain tissues from wild-type, untreated and NtBuHA-treated PPT1-KO mice (FIG. 18D) confirmed the visual assessment.

PPT1-KO mice [3] = test: Survival of PPT1-KO mice; type: in vivo, mouse; settings: 5.5 months after initiation; treatment from 3 months of age; 52 out of 59 mice; untreated 10%
Method: (§1) All animal experiments were performed according to the institutional guidelines after an animal protocol was approved by the Animal Care and Use Committee of the National Institute of Child Health and Development, National Institutes of Health. PPT1-KO mice (a gift from Dr. S. L. Hofmann, University of Texas Southwestern Medical Center at Dallas, Dallas, Tex., USA) were generated by targeted disruption of the last exon in the PPT1 gene in embryonic stem (ES) cells. These mice were subsequently backcrossed for 10 generations with wild type C57BL/6 mice in order to obtain congenic C57 background and a breeding pair was provided by Dr. Mark Sands to start the inventors' colony. Animals were housed and maintained in a pathogen-free facility. Three-month old PPT-KO mice were given NtBuHA in their drinking water (1 mM NtBuHA and 1 mM NaCl).
For this study, 3-month old PPT1-KO mice were divided into two groups. In the first group, 55 mice received no treatment (control). In the second group, 59 mice were treated with NtBuHA. The status of all mice was monitored on a daily basis.

PPT1-KO mice [4] = test: Autofluorescence of brain tissues of PPT1-KO mice; type: in vivo, mouse; settings: vs untreated PPT1-KO mice (FIG. 13)
Method: as §1
Accumulation of intracellular autofluorescent lipopigment material in the brain and other tissues is a characteristic pathological finding in INCL patients and in PPT1-KO mice. Given this, it was hypothesized that NtBuHA-mediated depletion of GRODs may also reduce the intensity of autofluorescence in brain tissues of NtBuHA-treated PPT1-KO mice. Accordingly, a comparison of the autofluorescence of brain tissues from NtBuHA-treated PPT 1-KO mice, untreated PPT 1-KO mice, and wild-type litter-mates was performed.

INCL lymphoblasts = test: Depletion of [35S]cysteine-labeled lipid thioesters / hydrolysis of S-acylated proteins in PPT1-deficient lymphoblasts; type: cell-based, human; settings: lymphoblasts of nine NCL patients; 48 hours vs untreated cells (FIG. 8)
Method: Thus, this derivative was chosen for more extensive study of its ability to hydrolyze […] proteins, and to deplete lipid-extractable [^35S]cysteine thioesters from fibroblasts and lymphoblasts. INCL fibroblasts were obtained and cultured as described in Example 4. The cells were then labeled with [^35S]cysteine. Briefly, following incubation for six hours in medium lacking serum and cysteine/cystine, the cells were washed and then re-cultured for varying lengths of time in medium containing NtBuHA, with a change of medium every 12 hours. As controls, [^35S]cysteine-labeled cells were cultured in drug-free medium as well as medium containing 1M HA. Following incubation, cells were washed twice with cold PBS and then centrifuged at 2,250 g at 4° C. for 5 minutes. Lipid thioesters were then extracted from the cells and subject to analysis by high-performance thin layer chromatography. Briefly, the extracted fatty acyl esters were dissolved in chloroform:methanol (1:1) and an aliquot applied to a TLC plate and resolved using a mixture of chloroform:methanol:water (65:25:4). The plates were then dried and autoradiographs obtained.
The ability of NtBuHA to deplete [^35S]cysteine-thioester containing compounds was tested using [^35S]cysteine-labeled, immortalized lymphoblasts. […]

INCL fibroblasts = test: TEM analysis of GRODs in cultured INCL fibroblasts; type: cell-based, human; settings: 250 μM for 3 weeks vs untreated fibroblasts (FIG. 10)
Method: Transmission electron microsocopy (TEM) of INCL lymphoblasts and fibroblasts was performed. Briefly, cells were first treated with 250 μM NtBuHA for 3 weeks. Medium was replaced with fresh 250 μM of NtBuHA at every 72 hours. After treatment, cells were fixed with 2.5% glutaraldehyde in sodium phosphate buffer, washed three times with Millonig's phosphate buffer and stained with 2.5% uranyl acetate. Ultra-thin sections were then prepared using AO Reichert Ultracut ultramicrotome, stained with lead citrate and examined by using Zeiss EM10 CA.
Accordingly, untreated- and NtBuHA-treated cultured INCL lymphoblasts were analyzed using TEM.

SMILES: CC(C)(C)NO [NtBuHA, N-(tert-Butyl)hydroxylamine]
- motor function (Rotarod) (PPT1-KO mice [1]): retained near normal motor function
- NeuN-positive cells (PPT1-KO mice [2]): modestly higher level of NeuN-positive cells
- mice still alive (PPT1-KO mice [3]): 88%
- autofluorescence of brain tissues (PPT1-KO mice [4]): markedly reduced autofluorescence
- intensity of [35S]cysteine-labeled lipid bands (INCL lymphoblasts): clear reduction in the intensity
- GRODs in INCL fibroblasts (INCL fibroblasts): significantly lower number of GRODs with markedly reduced size and density
